Laboratory results from the NIST ThermoML archive (doi:10.1021/je900387e).
± gives the expanded uncertainty stated by the source.

Assay: xn = mol fraction of the nth substance listed
Details: Liquid, Pycnometric method

Cn1ccnc1 [1-methylimidazole] + O=C=O
Details | mass density [kg/m3]
308.2 K, 7790 kPa, x1 = 0.0247 | 745 ± 4
308.2 K, 7860 kPa, x1 = 0.0102 | 638 ± 4
308.2 K, 7870 kPa, x1 = 0.0102 | 640 ± 4
308.2 K, 7900 kPa, x1 = 0.0102 | 646 ± 4
308.2 K, 7940 kPa, x1 = 0.0102 | 652 ± 4
308.2 K, 7950 kPa, x1 = 0.0102 | 655 ± 4
308.2 K, 7970 kPa, x1 = 0.0247 | 755 ± 4
308.2 K, 7980 kPa, x1 = 0.0102 | 661 ± 4
308.2 K, 8020 kPa, x1 = 0.0102 | 667 ± 4
308.2 K, 8080 kPa, x1 = 0.0102 | 676 ± 4
308.2 K, 8160 kPa, x1 = 0.0102 | 686 ± 4
308.2 K, 8200 kPa, x1 = 0.0247 | 766 ± 4
308.2 K, 8260 kPa, x1 = 0.0102 | 696 ± 4
308.2 K, 8380 kPa, x1 = 0.0102 | 706 ± 4
308.2 K, 8470 kPa, x1 = 0.0247 | 777 ± 4
308.2 K, 8520 kPa, x1 = 0.0102 | 716 ± 4
308.2 K, 8590 kPa, x1 = 0.0487 | 838 ± 4
308.2 K, 8680 kPa, x1 = 0.0487 | 841 ± 4
308.2 K, 8690 kPa, x1 = 0.0102 | 727 ± 4
308.2 K, 8790 kPa, x1 = 0.0487 | 844 ± 4
308.2 K, 8820 kPa, x1 = 0.0247 | 790 ± 4
308.2 K, 8910 kPa, x1 = 0.0102 | 738 ± 4
308.2 K, 8910 kPa, x1 = 0.0487 | 847 ± 4
308.2 K, 9040 kPa, x1 = 0.0487 | 849 ± 4
308.2 K, 9150 kPa, x1 = 0.0102 | 750 ± 4
308.2 K, 9150 kPa, x1 = 0.0487 | 852 ± 4
308.2 K, 9250 kPa, x1 = 0.0247 | 802 ± 4
308.2 K, 9290 kPa, x1 = 0.0487 | 853 ± 4
308.2 K, 9440 kPa, x1 = 0.0102 | 761 ± 4
308.2 K, 9450 kPa, x1 = 0.0487 | 858 ± 4
308.2 K, 9600 kPa, x1 = 0.0487 | 860 ± 4
308.2 K, 9750 kPa, x1 = 0.0247 | 815 ± 4
308.2 K, 9750 kPa, x1 = 0.0487 | 863 ± 4
308.2 K, 9800 kPa, x1 = 0.0102 | 773 ± 4
308.2 K, 9850 kPa, x1 = 0.1024 | 937 ± 4
308.2 K, 9920 kPa, x1 = 0.0487 | 866 ± 4
308.2 K, 10030 kPa, x1 = 0.1024 | 939 ± 4
308.2 K, 10130 kPa, x1 = 0.0247 | 824 ± 4
308.2 K, 10200 kPa, x1 = 0.0102 | 786 ± 4
308.2 K, 10360 kPa, x1 = 0.1024 | 942 ± 4
308.2 K, 10560 kPa, x1 = 0.0247 | 833 ± 4
308.2 K, 10630 kPa, x1 = 0.1024 | 945 ± 4
308.2 K, 10700 kPa, x1 = 0.0102 | 799 ± 4
308.2 K, 11000 kPa, x1 = 0.1024 | 948 ± 4
308.2 K, 11070 kPa, x1 = 0.0247 | 842 ± 4
308.2 K, 11250 kPa, x1 = 0.0102 | 812 ± 4
308.2 K, 11310 kPa, x1 = 0.1024 | 951 ± 4
308.2 K, 11620 kPa, x1 = 0.0247 | 851 ± 4
308.2 K, 11710 kPa, x1 = 0.1024 | 954 ± 4
308.2 K, 11920 kPa, x1 = 0.0102 | 826 ± 4
308.2 K, 12010 kPa, x1 = 0.1024 | 956 ± 4
308.2 K, 12240 kPa, x1 = 0.0247 | 860 ± 4
308.2 K, 12460 kPa, x1 = 0.1024 | 960 ± 4
308.2 K, 12590 kPa, x1 = 0.0247 | 865 ± 4
308.2 K, 12610 kPa, x1 = 0.0102 | 840 ± 4
308.2 K, 12820 kPa, x1 = 0.1024 | 963 ± 4
308.2 K, 12940 kPa, x1 = 0.0247 | 870 ± 4
308.2 K, 13250 kPa, x1 = 0.1024 | 966 ± 4
308.2 K, 13310 kPa, x1 = 0.0247 | 875 ± 4
308.2 K, 13440 kPa, x1 = 0.0102 | 859 ± 4
308.2 K, 13690 kPa, x1 = 0.1024 | 969 ± 4
308.2 K, 13720 kPa, x1 = 0.0247 | 880 ± 4
308.2 K, 14140 kPa, x1 = 0.0247 | 885 ± 4
308.2 K, 14140 kPa, x1 = 0.1024 | 972 ± 4
308.2 K, 14560 kPa, x1 = 0.0102 | 875 ± 4
308.2 K, 14570 kPa, x1 = 0.1024 | 975 ± 4
308.2 K, 14610 kPa, x1 = 0.0247 | 890 ± 4
308.2 K, 14990 kPa, x1 = 0.0102 | 880 ± 4
308.2 K, 15060 kPa, x1 = 0.0247 | 895 ± 4
308.2 K, 15080 kPa, x1 = 0.1024 | 978 ± 4
308.2 K, 15430 kPa, x1 = 0.0102 | 886 ± 4
308.2 K, 15540 kPa, x1 = 0.1024 | 981 ± 4
308.2 K, 15600 kPa, x1 = 0.0247 | 901 ± 4
308.2 K, 16080 kPa, x1 = 0.1024 | 984 ± 4
308.2 K, 16570 kPa, x1 = 0.1024 | 987 ± 4
308.2 K, 17250 kPa, x1 = 0.1024 | 991 ± 4
308.2 K, 17650 kPa, x1 = 0.1024 | 994 ± 4
308.2 K, 18340 kPa, x1 = 0.1024 | 998 ± 4
308.2 K, 18880 kPa, x1 = 0.1024 | 1001 ± 4
309.8 K, 8020 kPa, x1 = 0.0102 | 543 ± 4
309.8 K, 8030 kPa, x1 = 0.0102 | 551 ± 4
309.8 K, 8040 kPa, x1 = 0.0102 | 560 ± 4
309.8 K, 8060 kPa, x1 = 0.0102 | 571 ± 4
309.8 K, 8070 kPa, x1 = 0.0102 | 581 ± 4
309.8 K, 8090 kPa, x1 = 0.0102 | 589 ± 4
309.8 K, 8110 kPa, x1 = 0.0102 | 600 ± 4
309.8 K, 8140 kPa, x1 = 0.0102 | 612 ± 4
309.8 K, 8180 kPa, x1 = 0.0102 | 624 ± 4
309.8 K, 8230 kPa, x1 = 0.0102 | 636 ± 4
309.8 K, 8300 kPa, x1 = 0.0102 | 649 ± 4
309.8 K, 8390 kPa, x1 = 0.0102 | 663 ± 4
309.8 K, 8500 kPa, x1 = 0.0102 | 677 ± 4
309.8 K, 8650 kPa, x1 = 0.0102 | 691 ± 4
309.8 K, 8830 kPa, x1 = 0.0102 | 707 ± 4
309.8 K, 9090 kPa, x1 = 0.0102 | 723 ± 4
309.8 K, 9420 kPa, x1 = 0.0102 | 740 ± 4
309.8 K, 9830 kPa, x1 = 0.0102 | 758 ± 4
309.8 K, 10210 kPa, x1 = 0.0102 | 772 ± 4
309.8 K, 10880 kPa, x1 = 0.0102 | 790 ± 4
309.8 K, 11970 kPa, x1 = 0.0102 | 816 ± 4
309.8 K, 12530 kPa, x1 = 0.0102 | 826 ± 4
309.8 K, 13140 kPa, x1 = 0.0102 | 836 ± 4
309.8 K, 13680 kPa, x1 = 0.0102 | 846 ± 4
313.1 K, 8750 kPa, x1 = 0.0102 | 576 ± 4
313.1 K, 8770 kPa, x1 = 0.0102 | 581 ± 4
313.1 K, 8810 kPa, x1 = 0.0102 | 589 ± 4
313.1 K, 8850 kPa, x1 = 0.0102 | 597 ± 4
313.1 K, 8890 kPa, x1 = 0.0102 | 606 ± 4
313.1 K, 8900 kPa, x1 = 0.0247 | 717 ± 4
313.1 K, 8940 kPa, x1 = 0.0102 | 615 ± 4
313.1 K, 8990 kPa, x1 = 0.0102 | 624 ± 4
313.1 K, 9000 kPa, x1 = 0.0247 | 723 ± 4
313.1 K, 9040 kPa, x1 = 0.0102 | 633 ± 4
313.1 K, 9120 kPa, x1 = 0.0102 | 643 ± 4
313.1 K, 9120 kPa, x1 = 0.0247 | 729 ± 4
313.1 K, 9200 kPa, x1 = 0.0102 | 653 ± 4
313.1 K, 9260 kPa, x1 = 0.0247 | 737 ± 4
313.1 K, 9300 kPa, x1 = 0.0102 | 663 ± 4
313.1 K, 9400 kPa, x1 = 0.0247 | 744 ± 4
313.1 K, 9420 kPa, x1 = 0.0102 | 673 ± 4
313.1 K, 9550 kPa, x1 = 0.0102 | 684 ± 4
313.1 K, 9560 kPa, x1 = 0.0247 | 751 ± 4
313.1 K, 9700 kPa, x1 = 0.0102 | 695 ± 4
313.1 K, 9730 kPa, x1 = 0.0247 | 759 ± 4
313.1 K, 9900 kPa, x1 = 0.0102 | 707 ± 4
313.1 K, 9940 kPa, x1 = 0.0247 | 766 ± 4
313.1 K, 10070 kPa, x1 = 0.0487 | 827 ± 4
313.1 K, 10130 kPa, x1 = 0.0102 | 719 ± 4
313.1 K, 10170 kPa, x1 = 0.0247 | 774 ± 4
313.1 K, 10190 kPa, x1 = 0.0487 | 830 ± 4
313.1 K, 10320 kPa, x1 = 0.0487 | 833 ± 4
313.1 K, 10380 kPa, x1 = 0.0102 | 731 ± 4
313.1 K, 10440 kPa, x1 = 0.0487 | 835 ± 4
313.1 K, 10560 kPa, x1 = 0.0487 | 838 ± 4
313.1 K, 10570 kPa, x1 = 0.0247 | 786 ± 4
313.1 K, 10690 kPa, x1 = 0.0487 | 841 ± 4
313.1 K, 10700 kPa, x1 = 0.0102 | 744 ± 4
313.1 K, 10830 kPa, x1 = 0.0487 | 843 ± 4
313.1 K, 10870 kPa, x1 = 0.0247 | 794 ± 4
313.1 K, 10990 kPa, x1 = 0.0487 | 846 ± 4
313.1 K, 11080 kPa, x1 = 0.0102 | 758 ± 4
313.1 K, 11130 kPa, x1 = 0.0487 | 849 ± 4
